Measured values: patent US7943598B2, “Use of organic glucosamine salts” (Bioiberica, S.A., priority 2004, dated 2011)

System: aggrecan degradation induced with IL-1α
Assay: Inhibition of aggrecan degradation (aggrecanolysis) induced with IL-1α in LTC chondrocyte culture, Western Blot with anti-G1 antibody
Assay type: cell-based, rat
Conditions: for inhibition of aggrecanolysis induced by IL-1α vs. the control: LTC rat chondrosarcoma chondrocyte culture, 10 ng/mL IL-1α, 4 days, control = culture with only IL-1α
Procedure: The study of the inhibition of aggrecan degradation was performed on a chondrocyte culture from a rat chondrosarcoma cell line. This cell line, called LTC, deposits an extracellular matrix similar to the cartilage's, expresses all the components of the aggrecanase system, generates the fragmentation of aggrecan by said enzymes, and responds to known aggrecanolysis inhibitors such as glucosamine hydrochloride. The assays were performed on chondrocyte cultures from a rat chondrosarcoma cell line called LTC. The LTC cells were kept in a monolayer culture in a Gibco DMEM medium (Dulbecco's Modification of Eagle's Medium) (containing 4.5 g/L of glucose) supplemented with sodium bicarbonate (3.7 g/L), glutamine (2 mM), ascorbic acid (50 mg/L), gentamicin (50 mg/L), and bovine fetal serum Hyalone (10%), at pH 7.4. The confluent LTC cell cultures were trypsinised and 40,000 cells per 0.5 mL of culture were seeded in 48-well plates. They were maintained for 5 days, during which time they deposited 15-30 μg of glycosaminoglycans (GAG) in each well. The medium was separated, the cell membranes were washed by adding 5×1 mL of a catabolic medium {DMEM+4.5 g/L glucose supplemented with sodium bicarbonate (3.7 g/L), glutamine (2 mM), and 10 ng/mL of IL-1α (interleukin-1α) at pH 7.4}. Subsequently, the cultures were kept in 200 μL of this medium, supplemented or not with glucosamine hydrogen malate, for 4 days, without changing the medium, at 37° C. In order to verify the effect of glucosamine hydrogen malate on aggrecan degradation, a Western Blot was performed. For the Western Blot, 20 μL of 50 mM tris-acetate at pH 7.3 were added to each well. The cultures (medium+cell membrane) were deglycosylated with 50 mU of chondroitinase ABC at 37° C. for 4 hours. Subsequently, the samples in each well were recovered and centrifuged at 1,460 g for 10 minutes. 25 μL-fractions of the supernatant were separated by electrophoresis (gel gradient 8-12% SDS PAGE) and analysed by means of a Western Blot using anti-G1 antibody. The antiserum was used at a 1:5,000 dilution and the peroxidase-conjugated goat anti-(rabbit IgG) was detected by means of the Amersham ECL Kit. The exposure time ranged between 5 seconds and 5 minutes in order to obtain quantifiable images. The Western Blots were scanned and the bands were quantified by means of the SCION image analysis software. In relation to the described procedure, see: J. D. Sandy et al., Biochem. J. 335, 59-66 (1998).

| SMILES | inhibition of aggrecanolysis induced by IL-1α vs. the control (1 mM) | effectiveness in inhibiting aggrecanolysis compared with glucosamine hydrochloride (FIG. 1) (10 mM, LTC culture with IL-1α) | inhibition of aggrecanolysis induced by IL-1α vs. the control (10 mM) |
| --- | --- | --- | --- |
| N[C@H]1C(O)O[C@H](CO)[C@@H](O)[C@@H]1O.O=C(O)CC(O)C(=O)O (some centres unmarked) [glucosamine hydrogen malate, Glucosamine Hydrogen Malate] | 95±17.5% | significantly more effective than glucosamine hydrochloride | 32±3.7% |
| Cl.N[C@H]1C(O)O[C@H](CO)[C@@H](O)[C@@H]1O (some centres unmarked) [glucosamine hydrochloride, reference compound] | 83±4.9% |  | 53±5.8% |
